# Patent EP0359505A1, “Dopamine-beta hydroxylase inhibitors” (SMITHKLINE BEECHAM CORPORATION, priority 1988, dated 1990)
# Key:
# [1] = biological target: T1, DBH (Homo sapiens, UniProt P09172); conditions: as reported by Runti et al.; cited from earlier work
# T1 sequence (P09172 1-617): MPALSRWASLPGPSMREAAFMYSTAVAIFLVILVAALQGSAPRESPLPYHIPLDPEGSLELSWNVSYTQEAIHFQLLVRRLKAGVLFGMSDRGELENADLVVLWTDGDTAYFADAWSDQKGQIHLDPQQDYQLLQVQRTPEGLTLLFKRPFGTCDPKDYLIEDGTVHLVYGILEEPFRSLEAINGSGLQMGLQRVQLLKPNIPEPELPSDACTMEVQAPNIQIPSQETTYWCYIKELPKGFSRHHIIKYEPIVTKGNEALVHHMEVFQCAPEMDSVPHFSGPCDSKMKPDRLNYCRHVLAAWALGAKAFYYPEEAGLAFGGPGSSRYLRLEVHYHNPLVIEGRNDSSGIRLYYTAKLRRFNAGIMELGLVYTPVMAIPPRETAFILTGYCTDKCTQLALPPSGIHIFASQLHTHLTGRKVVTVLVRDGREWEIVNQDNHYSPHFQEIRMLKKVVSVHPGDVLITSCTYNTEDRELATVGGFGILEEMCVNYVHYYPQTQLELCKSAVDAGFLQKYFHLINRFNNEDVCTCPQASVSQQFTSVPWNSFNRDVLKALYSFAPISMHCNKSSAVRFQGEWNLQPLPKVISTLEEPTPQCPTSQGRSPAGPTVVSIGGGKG
# [2] = see Teresawa et al.; cited from earlier work
# [3] = tested on: spontaneously hypertensive rats; experiment: mean arterial blood pressure in spontaneously hypertensive rats, indwelling cannulae in the tail arteries; format: in vivo; conditions: 100 mg/kg orally
# Protocol: Further, spontaneously hypertensive rats were treated with 3-mercapto-4-benzyl-5-(4-pyridyl)-1,2,4-triazole at a dose of 100 mg/kg orally and mean arterial blood pressure was monitored for 250 minutes using indwelling cannulae in the tail arteries. […] The maximal blood pressure reduction was approximately 25 mmHg.
compound,measurement,setting,value
phenylpicolinic acid,inhibitory activity relative to fusaric acid,[1],twice the inhibitory activity of fusaric acid
CCCCc1ccc(C(=O)O)nc1 [Fusaric acid],toxic effects,[2],hepatotoxic
"Sc1nnc(-c2ccncc2)n1Cc1ccccc1 [3-Mercapto-4-benzyl-5-(4-pyridyl)-1,2,4-triazole]",blood pressure compared to vehicle-treated controls,[3]; between 80 and 240 minutes following treatment,significant blood pressure reductions
same,maximal blood pressure reduction,"[3]; mean arterial blood pressure monitored for 250 minutes, compared to vehicle-treated controls",approximately 25 mmHg
